Results as given in patent US20240384268A1, “Oligonucleotides” (Hudson Institute of Medical Research, priority 2021, published 2024).
In the oligonucleotide strings, read from the 5' end, every base follows the letter of its sugar. An asterisk marks phosphorothioate; unmarked linkages are phosphodiester. Other units and linkages are bracketed, terminal groups are in braces. A string of capitals states the bases alone. m = 2'-O-methyl

Target: T1, TLR8 (Homo sapiens, UniProt Q9NR97)
T1 sequence (Q9NR97 27-1041): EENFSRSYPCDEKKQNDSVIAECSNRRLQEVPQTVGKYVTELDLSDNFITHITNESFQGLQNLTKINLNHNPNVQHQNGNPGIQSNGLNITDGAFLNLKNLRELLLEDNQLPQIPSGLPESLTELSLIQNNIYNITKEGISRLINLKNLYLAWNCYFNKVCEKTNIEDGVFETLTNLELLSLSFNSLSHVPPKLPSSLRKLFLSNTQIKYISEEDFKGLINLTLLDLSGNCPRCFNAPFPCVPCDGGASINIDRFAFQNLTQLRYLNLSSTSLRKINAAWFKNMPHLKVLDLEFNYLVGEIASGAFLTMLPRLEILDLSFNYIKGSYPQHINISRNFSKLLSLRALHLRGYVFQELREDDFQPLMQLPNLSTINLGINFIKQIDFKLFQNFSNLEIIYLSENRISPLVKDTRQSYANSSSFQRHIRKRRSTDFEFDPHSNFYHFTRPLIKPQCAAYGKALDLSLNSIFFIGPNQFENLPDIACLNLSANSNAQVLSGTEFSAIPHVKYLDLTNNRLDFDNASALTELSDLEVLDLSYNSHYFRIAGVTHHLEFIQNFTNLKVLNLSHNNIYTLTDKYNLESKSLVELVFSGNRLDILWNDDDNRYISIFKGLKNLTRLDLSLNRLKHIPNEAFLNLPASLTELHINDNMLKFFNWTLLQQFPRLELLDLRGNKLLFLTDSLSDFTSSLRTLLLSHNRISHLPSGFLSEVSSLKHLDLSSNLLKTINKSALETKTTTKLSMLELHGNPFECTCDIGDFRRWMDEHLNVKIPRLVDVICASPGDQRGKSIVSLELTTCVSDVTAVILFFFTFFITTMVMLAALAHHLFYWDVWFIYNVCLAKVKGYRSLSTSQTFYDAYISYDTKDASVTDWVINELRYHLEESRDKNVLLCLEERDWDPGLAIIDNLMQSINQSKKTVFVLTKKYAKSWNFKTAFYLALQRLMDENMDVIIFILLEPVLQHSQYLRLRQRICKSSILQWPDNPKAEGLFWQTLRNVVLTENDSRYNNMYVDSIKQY
Assay: HEK-TLR8 NF-κB-luciferase reporter, R848 or Motolimod stimulation (potentiation or inhibition)
Format: cell-based
Parameters: expressed in transfected cells; host or cells: 293XLhTLR8 (HEK293)
Conditions: for TLR8 100 nM (averaged NF-κB-Luciferase level relative to R848 condition, fold increase): ASO 100 nM; for TLR8 100 nM (averaged NF-κB-Luciferase level relative to R848 condition, fold increase) / TLR8 500 nM (averaged NF-κB-Luciferase level relative to R848 condition, fold increase): relative to R848 only; for TLR8 500 nM (averaged NF-κB-Luciferase level relative to R848 condition, fold increase): ASO 500 nM; for TLR8 HEK 5 uM: 3mer 2'OMe ASO at 5 uM, value relative to Ligand only = 1.000, NT = 0.000

Substance | TLR8 100 nM (averaged NF-κB-Luciferase level relative to R848 condition, fold increase) | TLR8 500 nM (averaged NF-κB-Luciferase level relative to R848 condition, fold increase) | TLR8 HEK 5 uM (HEK-TLR8) | effect of 3-mer 2′OMe PS oligos on TLR8 sensing in HEK-TLR8 (in words) (HEK-TLR8, 5 μM naked 3-mer, Motolimod)
GTTCAGTCCTGTCCAT (antisense; LNA-modified, pattern not given here) [HPRT LNA-292 V1] | 1.069 | 4.129 |  | 
CUG (mC*mU*mG) |  |  | 1.074 | 
TGATGGCCTCCCATCT (antisense; LNA-modified, pattern not given here) [HPRT LNA-332 V1] | 0.374 | 0.263 |  | 
CCAAGATCAGCAGTCT (antisense; LNA-modified, pattern not given here) [CTNN2B-2341 LNA KL] | 1.015 | 2.920 |  | 
TTCGTGGGGTCCTTTT (antisense; LNA-modified, pattern not given here) [HPRT LNA-661 V1] | 0.621 | 3.144 |  | 
mGmUmG (mG*mU*mG) [GUG, 3-mer 2′OMe PS oligo] |  |  | 0.882 | robustly inhibitory
AUA (antisense mA*mU*mA) |  |  | 0.812 | 
TGTGATGGCCTCCCAT (antisense; LNA-modified, pattern not given here) [HPRT LNA-334 V1] | 0.582 | 1.596 |  | 
dA*dC*dA (DNA ACA; listed as RNA, chemistry not fully specified) |  |  | 0.841 | 
dC*dA*dC (CAC; listed as RNA, chemistry not fully specified) |  |  | 0.809 | 
mUmCmA (mU*mC*mA) [UCA, 3-mer 2′OMe PS oligo] |  |  | 1.115 | 
dA*dG*dC (DNA AGC; listed as DNA, chemistry not fully specified) |  |  | 1.411 | 
CCU (mC*mC*mU) |  |  | 0.613 | 
GCCATGTTTCTTCTTG (antisense; LNA-modified, pattern not given here) [MB21D1-1248 LNA KL] | 0.430 | 0.431 |  | 
UUG (listed as RNA, chemistry not fully specified) |  |  | 1.071 | 
GGU (mG*mG*mU) |  |  | 1.380 | 
AAU (antisense mA*mA*mU) |  |  | 0.807 | 
